# Test system: F. arborescens protease
# Format: biochemical, Flavobacterium arborescens
Molecule,Activity of protease in presence of inhibitor,Effect of inhibitor on protease activity (in words)
"O=C(O)CN(CCN(CC(=O)O)CC(=O)O)CC(=O)O [EDTA, ethylenediamine tetraacetate]",4.1 units,
"CCN1C(=O)C=CC1=O [NEM, N--ethyl maleimide]",2.0 units,
"O=S(=O)(F)Cc1ccccc1 [PMSF, phenylmethyl sulfonyl fluoride]",1.9 units,no effect
"SSI: streptomyces subtilisin inhibitor (protein, UniProt P01006 32-144, looked up) Subtilisin inhibitor: DAPSALYAPSALVLTVGKGVSATTAAPERAVTLTCAPGPSGTHPAAGSACADLAAVGGDLNALTRGEDVMCPMVYDPVLLTVDGVWQGKRVSYERVFSNECEMNAHGSSVFAF",1.6 units,strongly inhibited
